Measured values: patent publication US12486228B2, “N-substituted indoles and use as allosteric modulators of cannabinoid receptors” (priority 2018, dated 2025)
Where two headings read alike, the source gives them in different places.

Assays:
Experiment in all cases: cell-based
[1] = target: T1, CB2 (Homo sapiens, UniProt P34972); settings: for EC50 / Emax: CB2, agonist mode; for EC50: read-out: CB2 Agonist mode cAMP EC50; for Emax: read-out: CB2 Agonist mode cAMP Emax
[2] = target: T1, CB2; settings: for EC50 / Emax: CB2, agonist mode; for EC50: read-out: CB2 Agonist mode β-Arrestin EC50; for Emax: read-out: CB2 Agonist mode β-Arrestin Emax
[3] = target: T2, hCB1 (Homo sapiens, UniProt P21554); parameters: host or cells: CHO-K1
T2 sequence (P21554 whole entry): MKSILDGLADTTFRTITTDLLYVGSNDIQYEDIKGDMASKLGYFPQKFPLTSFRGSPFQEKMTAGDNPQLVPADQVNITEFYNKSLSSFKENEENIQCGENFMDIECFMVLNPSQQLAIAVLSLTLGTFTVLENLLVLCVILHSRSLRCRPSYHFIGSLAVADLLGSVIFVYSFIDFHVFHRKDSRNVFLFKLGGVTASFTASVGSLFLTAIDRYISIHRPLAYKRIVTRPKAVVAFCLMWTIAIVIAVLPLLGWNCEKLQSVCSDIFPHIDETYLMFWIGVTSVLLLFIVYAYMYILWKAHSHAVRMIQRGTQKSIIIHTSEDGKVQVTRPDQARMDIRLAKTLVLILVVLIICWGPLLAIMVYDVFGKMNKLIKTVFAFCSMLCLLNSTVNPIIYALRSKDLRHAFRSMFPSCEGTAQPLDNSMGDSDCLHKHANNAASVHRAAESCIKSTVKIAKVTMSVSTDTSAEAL
Experimental: HitHunter cAMP assay: Inhibition of forskolin-stimulated cAMP was determined using the DiscoveRx HitHunter assay in hCB1R CHO-K1 cells. Cells (20,000 cells/well in low-volume 96 well plates) were incubated overnight in Opti-MEM (Invitrogen) containing 1% FBS at 37° C. and 5% CO2. Following this, Opti-MEM media was removed and replaced with cell assay buffer (DiscoveRx) and cells were co-treated at 37° C. with 10 μM forskolin and hCB1R ligands (0.10 nM-10 μM) for 30 min or 90 min cAMP antibody solution and cAMP working detection solutions were then added to cells according to the manufacturer's directions (DiscoveRx®) and cells were incubated for 60 min at room temperature. cAMP solution A was added according to the manufacturer's directions (DiscoveRx®) and cells were incubated for an additional 60 min at room temperature before chemiluminescence was measured on a Cytation 5 plate reader (top read, gain 200, integration time 10,000 ms).

[4] = target: T2, hCB1; parameters: host or cells: CHO-K1 PathHunter
Experimental: PathHunter CB1 β-Arrestin Assay: Chinese hamster ovary K1 (CHO-K1)-PathHunter hCB1 β-arrestin cells (DiscoveRx, Fremont, CA) were seeded at 5000 cells/well in 384-well plates 24 h before use and incubated at 37° C., 5% CO2. Compounds were dissolved in dimethyl sulfoxide (DMSO) and diluted in optimized cell culture (OCC) media. Agonist EC80 was determined directly from an agonist dose—response curve (data not shown). […] Five microliters of allosteric modulator or vehicle solution was added to each well at the appropriate concentrations and incubated for 30 min. Five microliters of agonist was then added to each well followed by a 90 min incubation. Fifteen microliters of detection reagent was then added followed by further 60 min incubation at room temperature. Chemiluminescence was measured on a standard luminescence plate reader as relative light units (RLU). Basal RLU was defined as zero. […] Data were analyzed using the fourparameter variable-slope and allosteric EC50 shift nonlinear regression equations in Prism 5.0 (GraphPad, San Diego, CA).

[5] = CB1, PAM mode, read-out: CB1 PAM mode cAMP EC50
[6] = CB1, agonist mode, read-out: CB1 Agonist mode cAMP EC50
[7] = read-out: CB1 Agonist mode cAMP Emax, CB1, agonist mode
[8] = read-out: CB1 PAM mode cAMP Emax, CB1, PAM mode
[9] = CB1, PAM mode, read-out: CB1 PAM mode β-Arrestin EC50
[10] = CB1, agonist mode, read-out: CB1 Agonist mode β-Arrestin EC50
[11] = read-out: CB1 Agonist mode β-Arrestin Emax
[12] = read-out: CB1 PAM mode β-Arrestin Emax

T1 sequence (P34972 whole entry, species assumed): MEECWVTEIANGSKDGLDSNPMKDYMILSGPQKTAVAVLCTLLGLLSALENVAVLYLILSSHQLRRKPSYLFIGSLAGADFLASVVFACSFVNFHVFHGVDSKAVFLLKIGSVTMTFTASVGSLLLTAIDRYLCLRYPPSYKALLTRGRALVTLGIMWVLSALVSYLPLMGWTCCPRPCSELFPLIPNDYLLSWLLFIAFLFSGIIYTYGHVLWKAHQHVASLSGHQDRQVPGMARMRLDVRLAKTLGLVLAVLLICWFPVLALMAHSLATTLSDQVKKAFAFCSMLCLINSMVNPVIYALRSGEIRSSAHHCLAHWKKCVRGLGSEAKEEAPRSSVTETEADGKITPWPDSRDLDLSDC

Row | Compound | EC50 [1] | EC50 [2] | EC50 [3, 5] | EC50 [3, 6] | Emax [3, 7] | Emax [3, 8] | EC50 [4, 9] | EC50 [4, 10] | Emax [4, 11] | Emax [4, 12] | also measured
1 | O=C(O)CCC(c1ccccc1)c1cn(-c2ccccn2)c2ccccc12 (stereo not drawn) [Compound 21, 4-Phenyl-4-(1-(pyridin-2-yl)-1H-indol-3-yl)butanoic acid] | 1.11 µM | > 10 µM | 0.869 µM | 0.457 µM | 95% | 96% | > 10 µM | > 10 µM | 0% | 0% | Emax [1]: 85%; Emax [2]: 0%
2 | O=C(O)CCC(c1ccccc1)c1c[nH]c2ccccc12 (stereo not drawn) [Compound 28, 4-(1H-Pndol-3-yl)-4-phenylbutanoic acid] | > 10 µM | > 10 µM | 4.35 µM | 9.81 µM | 60% | 71% | > 10 µM | > 10 µM | 0% | 0% | Emax [1]: 29%; Emax [2]: 0%
3 | CC(=O)CC(C)C(c1ccccc1)c1cn(-c2ccccc2)c2ccccc12 (stereo not drawn) [Compound 42, 4-Methyl-5-phenyl-5-(1-phenyl-1H-indol-3-yl)pentan-2-one] | – | > 10 µM | > 10 µM | – | – | – | – | – | – | – | CB2 Agonist mode cAMP Emax [1]: (0) %; CB2 Agonist mode β-Arrestin Emax [2]: 0%; CB1 PAM mode cAMP Emax ([3]; CB1, PAM mode): (0) %; CB1 Agonist mode cAMP Emax ([3]; CB1, agonist mode): (0) %; CB1 PAM mode β-Arrestin Emax ([4]; CB1, PAM mode): (0) %; CB1 Agonist mode β-Arrestin Emax ([4]; CB1, agonist mode): (0) %
4 | O=[N+]([O-])CC(c1ccccc1)c1c(-c2ccccc2)[nH]c2ccccc12 (stereo not drawn) [GAT211, reference compound] | > 10 µM | > 10 µM | – | – | – | – | – | – | – | – | CB2 Agonist mode cAMP Emax [1]: (0) %; CB2 Agonist mode β-Arrestin Emax [2]: 0%; CB1 PAM mode cAMP Emax ([3]; CB1, PAM mode): (73) %; CB1 Agonist mode cAMP Emax ([3]; CB1, agonist mode): (94) %; CB1 PAM mode β-Arrestin Emax ([4]; CB1, PAM mode): (59) %; CB1 Agonist mode β-Arrestin Emax ([4]; CB1, agonist mode): (14) %
5 | O=C(O)CC(c1ccccc1)c1cn(-c2ccccc2)c2ccccc12 (stereo not drawn) [Compound 8, 3-Phenyl-3-(1-phenyl-1H-indol-3-yl)propanoic acid] | – | – | 0.509 µM | – | – | 144% | > 10 µM | – | – | 0% | –
6 | O=C(O)CCC(c1ccccc1)c1cn(-c2cccnc2)c2ccccc12 (stereo not drawn) [Compound 22, 4-Phenyl-4-(1-(pyridin-3-yl)-1H-indol-3-yl)butanoic acid] | 0.731 µM | > 10 µM | 1 µM | 0.831 µM | 87% | 109% | > 10 µM | > 10 µM | 0% | 0% | Emax [1]: 68%; Emax [2]: 0%
7 | O=C(O)CCC(c1ccccc1)c1cn(Cc2ccccc2)c2ccccc12 (stereo not drawn) [Compound 18, 4-(1-Penzyl-1H-indol-3-yl)-4-phenylbutanoic acid] | 0.407 µM | > 10 µM | 0.61 µM | 1.04 µM | 87% | 97% | > 10 µM | > 10 µM | 0% | 0% | Emax [1]: 64%; Emax [2]: 0%
8 | CCOC(=O)C(C(=O)O)C(c1ccccc1)c1cn(-c2ccccc2)c2ccccc12 (stereo not drawn) [Compound 10, 3-Ethoxy-3-oxo-2-(phenyl(1-phenyl-1H-indol-3-yl)methyl)propanoic acid] | – | – | > 10 µM | – | – | 6.98% | > 10 µM | – | – | 4.59% | –
9 | OC(c1ccccc1)c1cn(-c2ccccc2)c2ccccc12 (stereo not drawn) [Compound 30, Phenyl(1-phenyl-1H-indol-3-yl)methanol] | – | – | > 10 µM | – | – | 0% | > 10 µM | – | – | 0% | –
10 | O=C(c1ccccc1)c1cn(-c2ccccc2)c2ccccc12 [Compound 40, Phenyl(1-phenyl-1H-indol-3-yl)methanone] | – | – | – | – | – | 11.7% | – | – | – | 0.273% | EC50 ([3]; CB1 PAM mode cAMP EC50, CB1, PAM mode): > 10 µM; EC50 [4]: > 10 µM
11 | O=C(O)/C=C\C(c1ccccc1)c1cn(-c2ccccc2)c2ccccc12 (stereo not drawn) [Compound 15, (Z)-4-phenyl-4-(1-phenyl-1H-indol-3-yl)but-2-enoic acid] | 1.05 µM | > 10 µM | 0.639 µM | 0.506 µM | 86% | 84% | > 10 µM | > 10 µM | 0% | 0% | Emax [1]: 81%; Emax [2]: 0%
12 | O=C(O)C(c1ccccc1)c1cn(-c2ccccc2)c2ccccc12 (stereo not drawn) [Compound 7, 2-Phenyl-2-(1-phenyl-1H-indol-3-yl)acetic acid] | – | – | 4.18 µM | – | – | 78.9% | > 10 µM | – | – | 0% | –
13 | CCOC(=O)CCC(c1ccccc1)c1cn(-c2ccccc2)c2ccccc12 (stereo not drawn) [Compound 13, Ethyl 4-phenyl-4-(1-phenyl-1H-indol-3-yl)butanoate] | – | – | > 10 µM | – | – | 0% | > 10 µM | – | – | 0% | –
14 | O=C(O)CCCC(c1ccccc1)c1cn(-c2ccccc2)c2ccccc12 (stereo not drawn) [Compound 19, 5-Phenyl-5-(1-phenyl-1H-indol-3-yl)pentanoic acid] | 0.654 µM | > 10 µM | 1.42 µM | 0.827 µM | 98% | 98% | > 10 µM | > 10 µM | 0% | 0% | Emax [1]: 95%; Emax [2]: 0%
15 | CC(CC(c1ccccc1)c1cn(-c2ccccc2)c2ccccc12)C(=O)O (racemic) [Compound 12, (±)-2-Methyl-4-phenyl-4-(1-phenyl-1H-indol-3-yl)butanoic acid] | – | – | 0.704 µM | 1.06 µM | – | – | > 10 µM | > 10 µM | – | – | CB1 PAM mode cAMP Emax ([3]; CB1, PAM mode): (101) %; CB1 Agonist mode cAMP Emax ([3]; CB1, agonist mode): (60) %; CB1 PAM mode β-Arrestin Emax ([4]; CB1, PAM mode): (0) %; CB1 Agonist mode β-Arrestin Emax ([4]; CB1, agonist mode): (0) %
16 | OCCC(c1ccccc1)c1cn(-c2ccccc2)c2ccccc12 (stereo not drawn) [Compound 32, 3-Phenyl-3-(1-phenyl-1H-indol-3-yl)propan-1-ol] | – | – | > 10 µM | – | – | 27.1% | > 10 µM | – | – | 0% | –
17 | OCC(c1ccccc1)c1cn(-c2ccccc2)c2ccc(Cl)cc12 (stereo not drawn) [Compound 35, 2-(5-Chloro-1-phenyl-1H-indol-3-yl)-2-phenylethan-1-ol] | – | – | > 10 µM | – | – | 2.81% | > 10 µM | – | – | 0% | –
18 | NC(=O)CC(c1ccccc1)c1cn(-c2ccccc2)c2ccccc12 (stereo not drawn) [Compound 38, 3-Phenyl-3-(1-phenyl-1H-indol-3-yl)propanamide] | – | – | > 10 µM | – | – | 27.1% | > 10 µM | – | – | 0% | –
19 | CC(CC(c1ccccc1)c1cn(-c2ccccc2)c2ccccc12)C(=O)O (racemic) [Compound 11, (±)-2-Methyl-4-phenyl-4-(1-phenyl-1H-indol-3-yl)butanoic acid] | – | – | 1.89 µM | 1.26 µM | 62% | 100% | > 10 µM | > 10 µM | 0% | 0% | –
20 | c1ccc(C(Cc2nnn[nH]2)c2cn(-c3ccccc3)c3ccccc23)cc1 (stereo not drawn) [Compound 39, 1-Phenyl-3-(1-phenyl-2-(1H-tetrazol-5-yl)ethyl)-1H-indole] | – | – | 0.423 µM | – | – | 94% | > 10 µM | – | – | 0% | –
21 | O=C(O)C(C(=O)O)C(c1ccccc1)c1cn(-c2ccccc2)c2ccccc12 (stereo not drawn) [Compound 9, 2-(Phenyl(1-phenyl-1H-indol-3-yl)methyl)malonic acid] | – | – | 1.28 µM | – | – | 158% | > 10 µM | – | – | 0% | –
22 | OCC(c1ccccc1)c1cn(-c2ccccc2)c2ccccc12 (stereo not drawn) [Compound 31, 2-Phenyl-2-(1-phenyl-1H-indol-3-yl)ethan-1-ol] | – | – | > 10 µM | – | – | 1.31% | > 10 µM | – | – | 0% | –
23 | OCCCC(c1ccccc1)c1cn(-c2ccccc2)c2ccccc12 (stereo not drawn) [Compound 34, 4-Phenyl-4-(1-phenyl-1H-indol-3-yl)butan-1-ol] | – | – | > 10 µM | – | – | 0% | > 10 µM | – | – | 5% | –
